From ChEMBL document CHEMBL5303573, “Mapping human microbiome drug metabolism by gut bacteria and their genes” (Nature, 2019)
Non-standard residues stand in square brackets, D forms with d. Residues, ends and D or L forms follow the SMILES beside them. pGlu = O=C1CC[C@@H](C(=O)O)N1; Thz = O=C(O)[C@@H]1CSCN1

Assays:
[1] = The drug is tested on Bifidobacterium breve strain: DSM20213 for biotransformation. The drug concentrations were measured before and after a 12-h incubation by liquid-chromatography-coupled mass spectrometry (LC–MS); conditions: 2 µM
[2] = The drug is tested on Bifidobacterium longum subsp. Infantis strain: CCUG52486 for biotransformation. The drug concentrations were measured before and after a 12-h incubation by liquid-chromatography-coupled mass spectrometry (LC–MS); conditions: 2 µM
[3] = The drug is tested on Bifidobacterium ruminantium strain: fecal isolate for biotransformation. The drug concentrations were measured before and after a 12-h incubation by liquid-chromatography-coupled mass spectrometry (LC–MS); conditions: 2 µM
[4] = The drug is tested on Collinsella aerofaciens strain: ATCC25986 for biotransformation. The drug concentrations were measured before and after a 12-h incubation by liquid-chromatography-coupled mass spectrometry (LC–MS); conditions: 2 µM
[5] = The drug is tested on Bacteroides dorei strain: DSM17855 for biotransformation. The drug concentrations were measured before and after a 12-h incubation by liquid-chromatography-coupled mass spectrometry (LC–MS); conditions: phocaeicola dorei, 2 µM
[6] = The drug is tested on Bacteroides ovatus strain: ATCC8483 for biotransformation. The drug concentrations were measured before and after a 12-h incubation by liquid-chromatography-coupled mass spectrometry (LC–MS); conditions: 2 µM
[7] = The drug is tested on Blautia luti strain: DSM14534 for biotransformation. The drug concentrations were measured before and after a 12-h incubation by liquid-chromatography-coupled mass spectrometry (LC–MS); assay type: ADME; set-up: dose 2 uM, timepoint 0 vs 12 hours; conditions: 2 µM
[8] = The drug is tested on Clostridium asparagiforme strain: DSM15981 for biotransformation. The drug concentrations were measured before and after a 12-h incubation by liquid-chromatography-coupled mass spectrometry (LC–MS); assay type: ADME; set-up: dose 2 uM, timepoint 0 vs 12 hours; conditions: enterocloster asparagiformis, 2 µM
[9] = The drug is tested on Clostridium sp. strain: fecal isolate for biotransformation. The drug concentrations were measured before and after a 12-h incubation by liquid-chromatography-coupled mass spectrometry (LC–MS); conditions: 2 µM
[10] = The drug is tested on Clostridium scindens strain: ATCC35704 for biotransformation. The drug concentrations were measured before and after a 12-h incubation by liquid-chromatography-coupled mass spectrometry (LC–MS); conditions: 2 µM
[11] = The drug is tested on Eubacterium hallii strain: DSM3353 for biotransformation. The drug concentrations were measured before and after a 12-h incubation by liquid-chromatography-coupled mass spectrometry (LC–MS); conditions: anaerobutyricum hallii, 2 µM
[12] = The drug is tested on Eubacterium ventriosum strain: ATCC27560 for biotransformation. The drug concentrations were measured before and after a 12-h incubation by liquid-chromatography-coupled mass spectrometry (LC–MS); assay type: ADME; set-up: dose 2 uM, timepoint 0 vs 12 hours; conditions: 2 µM
[13] = The drug is tested on Ruminococcus lactaris strain: ATCC29176 for biotransformation. The drug concentrations were measured before and after a 12-h incubation by liquid-chromatography-coupled mass spectrometry (LC–MS); conditions: 2 µM
[14] = The drug is tested on Ruminococcus torques strain: ATCC27756 for biotransformation. The drug concentrations were measured before and after a 12-h incubation by liquid-chromatography-coupled mass spectrometry (LC–MS); assay type: ADME; set-up: dose 2 uM, timepoint 0 vs 12 hours; conditions: 2 µM
[15] = bifidobacterium adolescentis, 12 h, 2 µM
Description: The drug is tested on Bifidobacterium adolescentis strain: ATCC 15703 for biotransformation. The drug concentrations were measured before and after a 12-h incubation by liquid-chromatography-coupled mass spectrometry (LC–MS)

[16] = bacteroides fragilis, 12 h, 2 µM
Description: The drug is tested on Bacteroides fragilis strain: NCTC 9343 for biotransformation. The drug concentrations were measured before and after a 12-h incubation by liquid-chromatography-coupled mass spectrometry (LC–MS)

[17] = bacteroides fragilis, 12 h, 2 µM; remark: listed apart in the source
Description: The drug is tested on Bacteroides fragilis strain: 3397 (T10) for biotransformation. The drug concentrations were measured before and after a 12-h incubation by liquid-chromatography-coupled mass spectrometry (LC–MS)

[18] = roseburia intestinalis, 12 h, 2 µM
Description: The drug is tested on Roseburia intestinalis strain: L1-82 for biotransformation. The drug concentrations were measured before and after a 12-h incubation by liquid-chromatography-coupled mass spectrometry (LC–MS)

[19] = bacteroides thetaiotaomicron, 12 h, 2 µM
Description: The drug is tested on Bacteroides thetaiotaomicron strain: 3731 for biotransformation. The drug concentrations were measured before and after a 12-h incubation by liquid-chromatography-coupled mass spectrometry (LC–MS)

SMILES	Bacterial Biotransformation [1]	Bacterial Biotransformation [2]	Bacterial Biotransformation [3]	Bacterial Biotransformation [4]	Bacterial Biotransformation [5]	Bacterial Biotransformation [6]	Bacterial Biotransformation [7]	Bacterial Biotransformation [8]	Bacterial Biotransformation [9]	Bacterial Biotransformation [10]	Bacterial Biotransformation [11]	Bacterial Biotransformation [12]	Bacterial Biotransformation [13]	Bacterial Biotransformation [14]	Bacterial Biotransformation [15]	Bacterial Biotransformation [16]	Bacterial Biotransformation [17]	Bacterial Biotransformation [18]	Bacterial Biotransformation [19]
O=C([O-])C[C@H](O)C[C@H](O)/C=C/c1c(C2CC2)nc2ccccc2c1-c1ccc(F)cc1.O=C([O-])C[C@H](O)C[C@H](O)/C=C/c1c(C2CC2)nc2ccccc2c1-c1ccc(F)cc1.[Ca+2] [PITAVASTATIN CALCIUM]	Compound NOT metabolized	Compound NOT metabolized	Compound NOT metabolized	Compound NOT metabolized	Compound NOT metabolized	Compound NOT metabolized	Compound NOT metabolized	Compound NOT metabolized	Compound NOT metabolized	Compound NOT metabolized	Compound NOT metabolized	Compound NOT metabolized	Compound NOT metabolized	Compound NOT metabolized	Compound NOT metabolized	Compound NOT metabolized	Compound NOT metabolized	–	Compound NOT metabolized
O=C(CCCN1CCC2(CC1)C(=O)NCN2c1ccccc1)c1ccc(F)cc1 [SPIPERONE]	Compound NOT metabolized	Compound NOT metabolized	Compound NOT metabolized	Compound NOT metabolized	Compound NOT metabolized	Compound NOT metabolized	Compound NOT metabolized	Compound NOT metabolized	Compound NOT metabolized	Compound NOT metabolized	Compound NOT metabolized	Compound NOT metabolized	Compound NOT metabolized	Compound NOT metabolized	Compound NOT metabolized	Compound NOT metabolized	Compound NOT metabolized	–	Compound NOT metabolized
CCOc1ccccc1OCCN[C@H](C)Cc1ccc(OC)c(S(N)(=O)=O)c1.Cl [TAMSULOSIN HYDROCHLORIDE]	Compound NOT metabolized	Compound NOT metabolized	Compound NOT metabolized	Compound NOT metabolized	Compound NOT metabolized	Compound NOT metabolized	Compound NOT metabolized	Compound NOT metabolized	Compound NOT metabolized	Compound NOT metabolized	Compound NOT metabolized	Compound NOT metabolized	Compound NOT metabolized	Compound NOT metabolized	Compound NOT metabolized	Compound NOT metabolized	Compound NOT metabolized	Compound NOT metabolized	Compound NOT metabolized
CS(=O)(=O)O.O.O.O.O=C1Cc2cc(CCN3CCN(c4nsc5ccccc45)CC3)c(Cl)cc2N1 [ZIPRASIDONE MESYLATE]	Compound NOT metabolized	Compound NOT metabolized	Compound NOT metabolized	Compound NOT metabolized	Compound NOT metabolized	Compound metabolized	Compound NOT metabolized	Compound NOT metabolized	Compound NOT metabolized	Compound NOT metabolized	–	Compound NOT metabolized	Compound NOT metabolized	Compound NOT metabolized	–	Compound NOT metabolized	Compound NOT metabolized	Compound NOT metabolized	Compound NOT metabolized

Further lines, results first:

Bacterial Biotransformation [1]	Bacterial Biotransformation [2]	Bacterial Biotransformation [3]	Bacterial Biotransformation [4]	Bacterial Biotransformation [5]	Bacterial Biotransformation [6]	Bacterial Biotransformation [7]	Bacterial Biotransformation [8]	Bacterial Biotransformation [9]	Bacterial Biotransformation [10]	Bacterial Biotransformation [11]	Bacterial Biotransformation [12]	Bacterial Biotransformation [13]	Bacterial Biotransformation [14]	Bacterial Biotransformation [15]	Bacterial Biotransformation [16]	Bacterial Biotransformation [17]	Bacterial Biotransformation [18]	Bacterial Biotransformation [19]	SMILES
Compound NOT metabolized	Compound NOT metabolized	Compound NOT metabolized	Compound NOT metabolized	Compound metabolized	Compound metabolized	Compound NOT metabolized	Compound NOT metabolized	Compound metabolized	Compound NOT metabolized	Compound NOT metabolized	Compound NOT metabolized	Compound NOT metabolized	Compound NOT metabolized	Compound NOT metabolized	Compound metabolized	Compound metabolized	Compound NOT metabolized	–	O=C1CC[C@@H](C(=O)N2CSC[C@H]2C(=O)O)N1 [PIDOTIMOD] ([pGlu]-[Thz]-OH)
Compound NOT metabolized	Compound NOT metabolized	Compound NOT metabolized	Compound NOT metabolized	Compound NOT metabolized	Compound NOT metabolized	Compound NOT metabolized	Compound NOT metabolized	Compound NOT metabolized	Compound NOT metabolized	Compound NOT metabolized	Compound NOT metabolized	Compound NOT metabolized	Compound NOT metabolized	Compound NOT metabolized	Compound NOT metabolized	Compound NOT metabolized	Compound NOT metabolized	Compound NOT metabolized	COc1ccccc1OCC(O)CN1CCN(CC(=O)Nc2c(C)cccc2C)CC1 (stereo not given) [RANOLAZINE]
Compound NOT metabolized	Compound NOT metabolized	Compound metabolized	Compound NOT metabolized	Compound metabolized	Compound NOT metabolized	Compound NOT metabolized	Compound NOT metabolized	Compound metabolized	Compound NOT metabolized	Compound NOT metabolized	Compound NOT metabolized	Compound NOT metabolized	–	Compound NOT metabolized	Compound NOT metabolized	Compound NOT metabolized	–	–	OC(CCN1CCCCC1)(c1ccccc1)C1CCCCC1 (stereo not given) [TRIHEXYPHENIDYL]
